ChEMBL document CHEMBL1201862, “PubChem BioAssay data set” (2004)
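Where inhibition never reached the appropriate level, the endpoint shown equals the highest concentration tested. Otherwise, values were interpolated linearly from a five-concentration, 48-hour dose response in 96-well plates. Abbreviation: GI50, concentration required for 50% inhibition of growth.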 Activity calls are given as the source filed them. No stated cut-off is given here; in the data, active = GI50 up to about 1.1 µM and inactive = higher. *1 amine or outer side, *2 acyl side, *3 side chain or, on linkers, in order; H or OH if unused. Where a SMILES comes first, the peptide text is derived from it. Bridges are numbered along the chain shown (N, C = ends). [ ]: non-standard residue; d: D form. X36 = CC[C@H](C)[C@@H](N[*:1])[C@@H](O)CC(=O)O[C@H](C(=O)[C@H](C)C(=O)[*:2])C(C)C; NMeY = CN[C@@H](Cc1ccc(O)cc1)C(=O)O

Tests used:
Test in all cases: NCI anticancer screen, dose series, 48 h
[1] = system: MDA-MB-435
[2] = system: A549
[3] = system: U-251
[4] = system: A498
[5] = system: HCT-15
[6] = system: SN12C
[7] = system: SK-MEL-28
[8] = system: UACC-257
[9] = system: DU-145
[10] = system: NCI-H522
[11] = system: SK-MEL-2
[12] = system: HCC 2998
[13] = system: M14
[14] = system: SF-295
[15] = system: NCI-H226
[16] = system: T47D
[17] = system: OVCAR-3

Row | Structure (SMILES) | GI50 [1] | GI50 [2] | GI50 [3] | GI50 [4] | GI50 [5] [µM] | GI50 [6] | GI50 [7] | GI50 [8] | GI50 [9] | GI50 [10] | GI50 [11] | GI50 [12] | GI50 [13] | GI50 [14] | GI50 [15] | GI50 [16] | GI50 [17]
1 | O=C(COc1ccc(OCC(=O)N2C(=O)CN(c3ccc(Cl)cc3)C2=S)cc1)N1C(=O)CN(c2ccc(Cl)cc2)C1=S | 31.2 µM (inactive) | 21.5 µM (inactive) | 24 µM (inactive) | 22.1 µM (inactive) | 29.9 | 30.5 µM (inactive) | 36.3 µM (inactive) | 27.8 µM (inactive) | 43.2 µM (inactive) | 26.5 µM (inactive) | 13.3 µM (inactive) | 21.7 µM (inactive) | 29 µM (inactive) | 29 µM (inactive) | 23.9 µM (inactive) | – | –
2 | Cc1c(NC(=O)CCl)c(=O)oc2c(C)c3occc(=O)c3cc12 | – | 14.5 µM (inactive) | 14.4 µM (inactive) | 16.9 µM (inactive) | > 10 | – | 12.8 µM (inactive) | 12.1 µM (inactive) | 23.7 µM (inactive) | – | – | 16.9 µM (inactive) | 13.1 µM (inactive) | 12.6 µM (inactive) | – | 14 µM (inactive) | –
3 | O=C1CC(C(=O)O)Cc2c(Br)ccc(O)c21 (centres undefined) | > 100 µM (inactive) | > 100 µM (inactive) | > 100 µM (inactive) | – | > 100 | > 100 µM (inactive) | > 100 µM (inactive) | > 100 µM (inactive) | > 100 µM (inactive) | > 100 µM (inactive) | > 100 µM (inactive) | > 100 µM (inactive) | > 100 µM (inactive) | > 100 µM (inactive) | 95.9 µM (inactive) | > 100 µM (inactive) | > 100 µM (inactive)
4 | CC1CCC(C(=O)O)(C(Br)C(=O)O)CC1 (centres undefined) | > 100 µM (inactive) | > 100 µM (inactive) | > 100 µM (inactive) | – | > 100 | > 100 µM (inactive) | > 100 µM (inactive) | > 100 µM (inactive) | > 100 µM (inactive) | – | > 100 µM (inactive) | – | > 100 µM (inactive) | > 100 µM (inactive) | > 100 µM (inactive) | – | > 100 µM (inactive)
5 | O=C1CS(=O)(=O)C(c2cccc(Oc3ccccc3)c2)N1C1CC1 (centres undefined) | 26.2 µM (inactive) | 35.6 µM (inactive) | 32.5 µM (inactive) | – | 30.3 | 46.8 µM (inactive) | 90.6 µM (inactive) | 33.2 µM (inactive) | 63.2 µM (inactive) | 38.7 µM (inactive) | 45.1 µM (inactive) | 44 µM (inactive) | 41.1 µM (inactive) | 36.6 µM (inactive) | 26.9 µM (inactive) | 35 µM (inactive) | 33 µM (inactive)
6 | CSCCC(NCc1c(O)ccc2c(-c3ccccc3)cc(=O)oc12)C(=O)O (centres undefined) | > 100 µM (inactive) | > 100 µM (inactive) | > 100 µM (inactive) | – | > 100 | > 100 µM (inactive) | > 100 µM (inactive) | > 100 µM (inactive) | > 100 µM (inactive) | > 100 µM (inactive) | > 100 µM (inactive) | > 100 µM (inactive) | > 100 µM (inactive) | > 100 µM (inactive) | > 100 µM (inactive) | > 100 µM (inactive) | > 100 µM (inactive)
7 | CC1(C)COC(c2cccc(C3=NC(C)(C)CO3)c2)=N1 | > 100 µM (inactive) | > 100 µM (inactive) | > 100 µM (inactive) | – | > 100 | – | > 100 µM (inactive) | > 100 µM (inactive) | > 100 µM (inactive) | – | > 100 µM (inactive) | > 100 µM (inactive) | > 100 µM (inactive) | – | > 100 µM (inactive) | 3.75 µM (inactive) | 0.0375 µM (active)
8 | Cc1ccc(S(=O)(=O)NC(CCC(=O)NN)C(=O)NN)cc1 (centres undefined) | > 100 µM (inactive) | > 100 µM (inactive) | > 100 µM (inactive) | > 100 µM (inactive) | 0.304 | – | – | > 100 µM (inactive) | – | > 100 µM (inactive) | > 100 µM (inactive) | – | > 100 µM (inactive) | > 100 µM (inactive) | > 100 µM (inactive) | > 100 µM (inactive) | > 100 µM (inactive)
9 | CC[C@H](C)[C@H]1NC(=O)[C@@H](N)[C@@H](C)OC(=O)[C@H](Cc2ccc(OC)cc2)N(C)C(=O)[C@@H]2CCCN2C(=O)[C@H](CC(C)C)NC(=O)[C@@H](C)C(=O)[C@H](C(C)C)OC(=O)C[C@@H]1O (H-T[X36]LP[NMeY](Me); ester 1-C) | 15.5 µM (inactive) | 19.3 µM (inactive) | 29.5 µM (inactive) | – | 36.7 | 29.6 µM (inactive) | 16.8 µM (inactive) | 15.6 µM (inactive) | – | 10.5 µM (inactive) | 46 µM (inactive) | 54.1 µM (inactive) | 4.84 µM (inactive) | 29.4 µM (inactive) | 37.2 µM (inactive) | – | 20.6 µM (inactive)
10 | CCCCCCCCCCCC(=O)Oc1c(Cl)cc(Cl)c(OC(=O)C(=O)Oc2c(Cl)cc(Cl)c(OC(=O)CCCCCCCCCCC)c2Cl)c1Cl | > 100 µM (inactive) | > 100 µM (inactive) | > 100 µM (inactive) | – | – | > 100 µM (inactive) | > 100 µM (inactive) | > 100 µM (inactive) | > 100 µM (inactive) | > 100 µM (inactive) | > 10 µM (inactive) | – | – | > 100 µM (inactive) | – | > 100 µM (inactive) | –
11 | CCSc1[nH]c(Nc2nc(-c3ccccc3)n(-c3ccccc3)n2)c(C(N)=O)c1C(N)=O | > 10 µM (inactive) | > 10 µM (inactive) | – | – | > 10 | > 10 µM (inactive) | > 10 µM (inactive) | > 10 µM (inactive) | > 10 µM (inactive) | – | – | > 10 µM (inactive) | > 10 µM (inactive) | 9.62 µM (inactive) | – | > 10 µM (inactive) | –
12 | CC(C)(CO)NC(=O)c1cccs1 | > 100 µM (inactive) | > 100 µM (inactive) | > 100 µM (inactive) | – | > 100 | > 100 µM (inactive) | > 100 µM (inactive) | > 100 µM (inactive) | > 100 µM (inactive) | > 100 µM (inactive) | > 100 µM (inactive) | > 100 µM (inactive) | > 100 µM (inactive) | > 100 µM (inactive) | – | > 100 µM (inactive) | > 100 µM (inactive)
13 | COCOc1cc(OC)ccc1C/C=N/O | > 100 µM (inactive) | > 100 µM (inactive) | > 100 µM (inactive) | – | > 100 | > 100 µM (inactive) | > 100 µM (inactive) | > 100 µM (inactive) | > 100 µM (inactive) | > 100 µM (inactive) | > 100 µM (inactive) | > 100 µM (inactive) | > 100 µM (inactive) | > 100 µM (inactive) | > 100 µM (inactive) | > 100 µM (inactive) | > 100 µM (inactive)
14 | Nc1nc(NNc2ccccc2F)cc(=O)[nH]1 | > 100 µM (inactive) | > 100 µM (inactive) | 82.2 µM (inactive) | > 100 µM (inactive) | > 100 | > 100 µM (inactive) | > 100 µM (inactive) | > 100 µM (inactive) | > 100 µM (inactive) | – | – | > 100 µM (inactive) | > 100 µM (inactive) | > 100 µM (inactive) | > 100 µM (inactive) | – | > 100 µM (inactive)
